± gives the expanded uncertainty stated by the source.
How the values were obtained:
[1] = for vapor or sublimation pressure: Diaphragm manometer; for mass density: isochoric method
[2] = xn = mol fraction of the nth substance listed; settings: isochoric method

CCOCC [diethyl ether]
[1], Liquid
Settings	vapor or sublimation pressure [kPa]
424.3 K	1790 ± 820
434.3 K	2150 ± 820
438.9 K	2390 ± 820

[1], Liquid
Settings	mass density [kg/m3]
442.3 K, 3250 kPa	473 ± 24
445.3 K, 3750 kPa	473 ± 24
447.8 K, 4200 kPa	473 ± 24
450.2 K, 4750 kPa	473 ± 24
453.9 K, 5680 kPa	473 ± 24
459.4 K, 6890 kPa	473 ± 24

CCOCC [diethyl ether] + CCC
[2]
Settings	mass density [kg/m3]
351.8 K, 2080 kPa, Liquid, x2 = 0.748	474 ± 27
359.2 K, 4110 kPa, Fluid (supercritical or subcritical phases), x2 = 0.748	474 ± 24
362.8 K, 2080 kPa, Liquid, x2 = 0.651	474
369.5 K, 7470 kPa, Fluid (supercritical or subcritical phases), x2 = 0.748	474 ± 24
370.3 K, 3910 kPa, Fluid (supercritical or subcritical phases), x2 = 0.651	474 ± 24
372 K, 3100 kPa, Liquid, x2 = 0.743	401 ± 28
379.4 K, 6660 kPa, Fluid (supercritical or subcritical phases), x2 = 0.651	474 ± 24
379.4 K, 10830 kPa, Fluid (supercritical or subcritical phases), x2 = 0.748	474 ± 24
382.7 K, 4110 kPa, Fluid (supercritical or subcritical phases), x2 = 0.743	401 ± 24
387.9 K, 9300 kPa, Fluid (supercritical or subcritical phases), x2 = 0.651	474 ± 24
390.1 K, 5340 kPa, Fluid (supercritical or subcritical phases), x2 = 0.743	401 ± 24
391.1 K, 14590 kPa, Fluid (supercritical or subcritical phases), x2 = 0.748	474 ± 24
394.9 K, 4010 kPa, Liquid, x2 = 0.655	401 ± 35
397.1 K, 12250 kPa, Fluid (supercritical or subcritical phases), x2 = 0.651	474 ± 24
399.9 K, 4420 kPa, Liquid, x2 = 0.742	311 ± 46
401.1 K, 7670 kPa, Fluid (supercritical or subcritical phases), x2 = 0.743	401 ± 24
401.1 K, 17840 kPa, Fluid (supercritical or subcritical phases), x2 = 0.748	474 ± 24
401.9 K, 5030 kPa, Fluid (supercritical or subcritical phases), x2 = 0.655	401 ± 24
405.6 K, 5640 kPa, Fluid (supercritical or subcritical phases), x2 = 0.655	401 ± 24
407.5 K, 5130 kPa, Fluid (supercritical or subcritical phases), x2 = 0.742	311 ± 22
407.7 K, 15710 kPa, Fluid (supercritical or subcritical phases), x2 = 0.651	474 ± 24
409.2 K, 4620 kPa, Liquid, x2 = 0.651	311 ± 39
410.7 K, 9710 kPa, Fluid (supercritical or subcritical phases), x2 = 0.743	401 ± 24
411.4 K, 21600 kPa, Fluid (supercritical or subcritical phases), x2 = 0.748	474 ± 24
412 K, 6760 kPa, Fluid (supercritical or subcritical phases), x2 = 0.655	401 ± 24
417.7 K, 6250 kPa, Fluid (supercritical or subcritical phases), x2 = 0.742	311 ± 22
418.5 K, 5130 kPa, Fluid (supercritical or subcritical phases), x2 = 0.651	311 ± 22
419.2 K, 19360 kPa, Fluid (supercritical or subcritical phases), x2 = 0.651	474 ± 24
419.7 K, 11640 kPa, Fluid (supercritical or subcritical phases), x2 = 0.743	401 ± 24
422.6 K, 8790 kPa, Fluid (supercritical or subcritical phases), x2 = 0.655	401 ± 24
429.1 K, 6250 kPa, Fluid (supercritical or subcritical phases), x2 = 0.651	311 ± 22
429.1 K, 7570 kPa, Fluid (supercritical or subcritical phases), x2 = 0.742	311 ± 22
429.6 K, 10210 kPa, Fluid (supercritical or subcritical phases), x2 = 0.655	401 ± 24
430.4 K, 13770 kPa, Fluid (supercritical or subcritical phases), x2 = 0.743	401 ± 24
437.5 K, 11740 kPa, Fluid (supercritical or subcritical phases), x2 = 0.655	401 ± 24
437.5 K, 15300 kPa, Fluid (supercritical or subcritical phases), x2 = 0.743	401 ± 24
437.8 K, 8590 kPa, Fluid (supercritical or subcritical phases), x2 = 0.742	311 ± 22
438.5 K, 7270 kPa, Fluid (supercritical or subcritical phases), x2 = 0.651	311 ± 22
447.3 K, 9710 kPa, Fluid (supercritical or subcritical phases), x2 = 0.742	311 ± 22
447.6 K, 13670 kPa, Fluid (supercritical or subcritical phases), x2 = 0.655	401 ± 24
449 K, 8390 kPa, Fluid (supercritical or subcritical phases), x2 = 0.651	311 ± 22
452.4 K, 18650 kPa, Fluid (supercritical or subcritical phases), x2 = 0.743	401 ± 24
455 K, 15200 kPa, Fluid (supercritical or subcritical phases), x2 = 0.655	401 ± 24
458.5 K, 9500 kPa, Fluid (supercritical or subcritical phases), x2 = 0.651	311 ± 22
459 K, 11220 kPa, Fluid (supercritical or subcritical phases), x2 = 0.742	311 ± 22
466.1 K, 12150 kPa, Fluid (supercritical or subcritical phases), x2 = 0.742	311 ± 22
467.4 K, 10620 kPa, Fluid (supercritical or subcritical phases), x2 = 0.651	311 ± 22
470 K, 10930 kPa, Fluid (supercritical or subcritical phases), x2 = 0.651	311 ± 22

COC [dimethyl ether]
[1]
Settings	mass density [kg/m3]
382.8 K, 4580 kPa, Liquid	451 ± 24
402.8 K, 8580 kPa, Gas	451 ± 52
411.6 K, 10360 kPa, Gas	451 ± 56
419.5 K, 12150 kPa, Gas	451 ± 60
425.4 K, 13670 kPa, Gas	451 ± 61
429.8 K, 14600 kPa, Gas	451 ± 67
432.6 K, 15210 kPa, Gas	451 ± 66
437.2 K, 16200 kPa, Gas	451 ± 63

CCCCC [pentane]
Settings	vapor or sublimation pressure [kPa]
[1], 406.9 K, Liquid	1300 ± 820

[1], Liquid
Settings	mass density [kg/m3]
417.1 K, 3060 kPa	484 ± 24
428 K, 6070 kPa	484 ± 24
436.6 K, 8340 kPa	484 ± 24
446.3 K, 10730 kPa	484 ± 24
453.2 K, 12730 kPa	484 ± 24

CCCCC [pentane] + CCC
[2]
Settings	mass density [kg/m3]
319.6 K, 5320 kPa, Liquid, x2 = 0.849	507 ± 26
320.4 K, 12800 kPa, Liquid, x2 = 0.512	567 ± 26
324.9 K, 8620 kPa, Liquid, x2 = 0.849	507 ± 26
326.1 K, 16230 kPa, Liquid, x2 = 0.512	567 ± 26
328.6 K, 10330 kPa, Liquid, x2 = 0.849	507 ± 26
331.8 K, 12010 kPa, Liquid, x2 = 0.849	507 ± 26
332 K, 19720 kPa, Liquid, x2 = 0.512	567 ± 26
336.2 K, 14280 kPa, Liquid, x2 = 0.849	507 ± 26
337.7 K, 22920 kPa, Liquid, x2 = 0.512	567 ± 26
340.8 K, 16310 kPa, Liquid, x2 = 0.849	507 ± 26
341.2 K, 24970 kPa, Liquid, x2 = 0.512	567 ± 26
345.3 K, 18250 kPa, Liquid, x2 = 0.849	507 ± 26
349.2 K, 20380 kPa, Liquid, x2 = 0.849	507 ± 26
353.6 K, 22340 kPa, Liquid, x2 = 0.849	507 ± 26
357.2 K, 24290 kPa, Liquid, x2 = 0.849	507 ± 26
394.8 K, 3250 kPa, Liquid, x2 = 0.551	401 ± 15
397.7 K, 4520 kPa, Liquid, x2 = 0.78	311 ± 1
404.7 K, 4010 kPa, Fluid (supercritical or subcritical phases), x2 = 0.551	401 ± 36
406.5 K, 5640 kPa, Fluid (supercritical or subcritical phases), x2 = 0.78	311 ± 150
409.3 K, 3610 kPa, Liquid, x2 = 0.474	384 ± 16
410.5 K, 4620 kPa, Fluid (supercritical or subcritical phases), x2 = 0.551	401 ± 36
416.5 K, 6760 kPa, Fluid (supercritical or subcritical phases), x2 = 0.78	311 ± 28
418.3 K, 5640 kPa, Fluid (supercritical or subcritical phases), x2 = 0.551	401 ± 110
419.2 K, 4730 kPa, Fluid (supercritical or subcritical phases), x2 = 0.474	384 ± 26
428.6 K, 8280 kPa, Fluid (supercritical or subcritical phases), x2 = 0.78	311 ± 28
428.9 K, 6560 kPa, Fluid (supercritical or subcritical phases), x2 = 0.474	384 ± 26
437.3 K, 9610 kPa, Fluid (supercritical or subcritical phases), x2 = 0.78	311 ± 22
439.5 K, 8280 kPa, Fluid (supercritical or subcritical phases), x2 = 0.474	384 ± 24
447.3 K, 10720 kPa, Fluid (supercritical or subcritical phases), x2 = 0.78	311 ± 22
449.2 K, 10010 kPa, Fluid (supercritical or subcritical phases), x2 = 0.474	384 ± 24
456.4 K, 12260 kPa, Fluid (supercritical or subcritical phases), x2 = 0.78	311 ± 22

CCC [propane]
[1], Liquid
Settings	vapor or sublimation pressure [kPa]
305.9 K	1030 ± 820
319.2 K	1270 ± 820
326.8 K	2260 ± 820
334.3 K	2350 ± 820
349.3 K	3040 ± 820
362.1 K	3920 ± 830
367.9 K	4440 ± 830

[1], Gas
Settings	mass density [kg/m3]
383.7 K, 5980 kPa	292 ± 46
397.4 K, 7350 kPa	292 ± 44
402.9 K, 7940 kPa	292 ± 43
434 K, 12760 kPa	292 ± 38

Source: the NIST ThermoML archive (doi:10.1021/acs.jced.9b00249)
